# Like-named read-outs stand apart in the source and are kept apart here.
# Experiments:
# [1] = Solubility at pH2 and pH6; assay type: physicochemical
# rat GnRH receptor = target: T1, rat GnRH receptor (Rattus norvegicus, UniProt P30969); test: Radioligand binding: inhibition of 125I-GnRH-A binding to rat GnRH receptor (rat pituitary membranes); conditions: read-out: Ki (nM), Inhibition Binding of 125I-GnRH-A to GnRH Receptors
# T1 construct: or rat pituitaries (Pel Freez Biologicals, Rogers, Ark.) were homogenized; tissue Pel Freez Biologicals; host or cells: rat pituitaries (membrane preparation)
# T1 sequence (P30969 1-327): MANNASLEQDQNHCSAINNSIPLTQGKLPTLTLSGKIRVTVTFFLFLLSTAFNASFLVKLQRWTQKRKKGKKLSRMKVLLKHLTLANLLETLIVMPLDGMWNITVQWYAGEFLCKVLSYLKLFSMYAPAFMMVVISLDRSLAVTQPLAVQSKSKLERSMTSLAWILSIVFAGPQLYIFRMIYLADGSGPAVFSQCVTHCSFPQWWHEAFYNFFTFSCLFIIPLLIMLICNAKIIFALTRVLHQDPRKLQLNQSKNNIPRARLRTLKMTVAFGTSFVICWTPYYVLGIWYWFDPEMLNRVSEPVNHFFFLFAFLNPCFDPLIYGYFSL
# Procedure, shortened: (§1)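 Membranes from rat pituitaries, or HEK 293 cells stably expressing mouse or human receptor, incubated 1 hour at room temperature with ~0.04-0.06 nM radioligand (HEPES pH 7.4, EDTA, MgCl2, BSA) and competitor at 0.1-10,000 nM. Bound ligand collected by GF/C filtration and counted; Ki derived from IC50 by Cheng-Prusoff.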
# [2] = In vitro metabolism: disappearance of parent compound in monkey liver microsomes; assay type: in vitro ADME; conditions: 5 uM compound, 30 minutes 37° C.
# Procedure, shortened: (§2)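 Microsomes from human, rat (male, female), dog and monkey liver incubated with 5 uM compound, 0.5 mg/ml protein and 2 mM NADPH in 50 mM K phosphate, pH 7.4, for 30 min at 37° C. Reaction stopped with acetonitrile; parent compound remaining measured by LC-MS.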
# [3] = In vitro metabolism: disappearance of parent compound in rat liver microsomes (male, female); assay type: in vitro ADME; conditions: 5 uM compound, 30 minutes 37° C.
# Procedure, shortened: as §2
# [4] = In vitro metabolism: disappearance of parent compound in human liver microsomes; assay type: in vitro ADME; conditions: 5 uM compound, 0.5 mg/ml protein, 2 mM NADPH, 30 minutes 37° C.
# Procedure, shortened: as §2
# human GnRH receptors = target: T2, human GnRH receptors (Homo sapiens, UniProt P30968); test: Radioligand binding: inhibition of 125I-GnRH-A binding to human GnRH receptor membranes; conditions: HEK 293 cell membranes
# T2 construct: expressed in transfected cells; host or cells: HEK 293 cells, stably transfected; membranes
# T2 sequence (P30968 1-328): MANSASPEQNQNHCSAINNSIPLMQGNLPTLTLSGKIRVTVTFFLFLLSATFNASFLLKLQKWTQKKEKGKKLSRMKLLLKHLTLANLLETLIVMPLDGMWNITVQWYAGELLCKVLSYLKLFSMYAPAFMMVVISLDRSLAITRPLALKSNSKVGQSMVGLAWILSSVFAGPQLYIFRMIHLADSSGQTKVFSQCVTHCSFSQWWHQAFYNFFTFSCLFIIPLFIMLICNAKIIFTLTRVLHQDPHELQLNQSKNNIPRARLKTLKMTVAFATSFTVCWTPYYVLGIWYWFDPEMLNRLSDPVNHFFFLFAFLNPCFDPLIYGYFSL
# Procedure, shortened: as §1
# [5] = In vitro metabolism: disappearance of parent compound in dog liver microsomes; assay type: in vitro ADME; conditions: 5 uM compound, 30 minutes 37° C.
# Procedure, shortened: as §2
# Rat plasma % remain = assay type: in vitro ADME
# mouse GnRH receptors = target: T3, mouse GnRH receptors (Mus musculus, UniProt Q01776); test: Radioligand binding: inhibition of 125I-GnRH-A binding to mouse GnRH receptor membranes; conditions: HEK 293 cell membranes
# T3 construct: expressed in transfected cells; host or cells: HEK 293 cells, stably transfected; membranes
# T3 sequence (Q01776 1-327): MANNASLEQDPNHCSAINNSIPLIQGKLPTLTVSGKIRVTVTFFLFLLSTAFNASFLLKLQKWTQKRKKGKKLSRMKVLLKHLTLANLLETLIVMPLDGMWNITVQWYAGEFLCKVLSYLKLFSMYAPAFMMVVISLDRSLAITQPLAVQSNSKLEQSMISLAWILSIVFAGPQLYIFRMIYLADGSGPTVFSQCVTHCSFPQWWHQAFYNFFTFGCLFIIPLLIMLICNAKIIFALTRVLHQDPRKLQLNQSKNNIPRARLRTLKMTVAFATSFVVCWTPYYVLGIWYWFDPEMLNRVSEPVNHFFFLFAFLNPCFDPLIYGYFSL
# Description: HEK 293 cells stably transfected with mouse or human GnRH receptors as described above were grown in Dulbecco's high-glucose, modified Eagle's medium (DMEM) supplemented with 0.2% G418, 10% fetal bovine serum (FBS) and 100 U/mL penicillin/streptomycin. GH3 cells stably transfected with the rat GnRH receptor (GGH3) were provided by Dr. William Chin (Harvard Medical School, Boston, Mass.). These cells have been extensively characterized previously (Kaiser et al., 1997). The cells were grown in low glucose DMEM containing: 100U/mL penicillin/streptomycin, 0.6% G418 and 10% heat-inactivated FBS.
# HEK 293 cells containing mouse or human receptors, or rat pituitaries (Pel Freez Biologicals, Rogers, Ark.) were homogenized in buffer A containing: 50 mM Tris (pH 7.4), 0.32 M sucrose, 2 mM EGTA, 1 mM PMSF, 5 μg/ml aprotinen, 5 μg/ml Pepstatin A, and 1 μg/ml leupeptin. Homogenized cells were centrifuged at 4° C. at 20,000×g for 25 minutes, re-suspended in buffer A and re-centrifuged at 4° C. at 20,000×g for an additional 25 minutes. Total membrane protein was determined with a BCA kit (Pierce, Rockford, Ill.). Membranes were stored at −70° C. at a final membrane protein concentration of approximately 5 mg/ml.
# The radioiodinated agonist analog of GnRH, [des-Gly^10,D-Ala^6]GnRH ethylamide (^125I-GnRH-A), was used as the radioligand. […] The reaction mixture was vortexed and incubated for 1 minute at room temperature. After one minute, the mixture was vortexed and allowed to incubate for an additional minute. 2 ml of 0.5 M acetic acid/1% BSA was added to the reaction tube and the mixture was added to a C18 Sep-Pak cartridge. The cartridge was washed with subsequent washes of 5 ml H2O and 5 ml 0.5 M acetic acid and then eluted with 5×1 ml of 60% CH3CN/40% 0.5 M acetic acid. The eluate was diluted with 3× volume of HPLC buffer A (0.1% TFA in H2O) and loaded onto a C18 column. The iodinated product was eluted over 20-25 min with a gradient of 25-100% CH3CN containing 0.1% TFA. The radioactive fractions (750 μl/fraction) were collected into clean polypropylene tubes containing 100 μl of 10% BSA. Fractions were assessed for biological activity by radioligand binding. Specific activity of the radioligand was approximately 2200 Ci/mmol.
# Membranes were diluted to 0.01-0.5 mg/ml (depending upon the species of receptor) with assay buffer containing 50 mM HEPES (pH 7.4), 1 mM EDTA, 2.5 mM MgCl2, and 0.1% BSA. Membranes (diluted to utilize similar receptor numbers between assays) were incubated with approximately 0.04-0.06 nM ^125I-GnRH-A in the presence or absence of competing agents (0.1-10,000 nM) in a total volume of 200 μl in 96-well polypropylene plates for 1 hour at room temperature. Assays were stopped by rapid filtration onto 96-well GF/C filters soaked in 0.1% polyethylenimine (PEI) utilizing a Packard 96-well cell harvester. Filters were washed three times with ice-cold PBS (50 mM NaPO4, 0.9% NaCl, 2 mM MgCl2, and 0.02% NaN3, pH 7.4). 35 μl of scintillation cocktail was added to each filter well and filters were counted on a Packard Topcount. Control dose-response curves were generated to GnRH (0.1 nM-100 nM) in each competition binding experiment. Ki values were calculated from IC50 values according to Cheng et al., Biochemical Pharmacol. 22: 3099-3108, 1973. [formula]
# [6] = target: T4, GGH3 cells (GH3 cells stably transfected with the rat GnRH receptor) (Rattus norvegicus, UniProt P30969); test: Effect of compounds on 125I-GnRH-A binding to GGH3 cells (competition radioligand binding, whole cells); conditions: on ice 2 hr
# T4 construct: host or cells: GH3 cells stably transfected (GGH3), whole cells
# T4 sequence (P30969 1-327): T1 sequence (P30969 1-327)
# Description: Cell Culture. GGH3 cells (Dr. William Chin, Harvard Medical School, Boston, Mass.) are grown in low glucose Dulbecco's modified Eagle's medium (DMEM) containing 100 U/mL penicillin/streptomycin, 0.6 g/L G418 and 10% heat-inactivated FBS.
# The reaction mixture is vortexed and incubated for 1 min at room temperature. Two; ml of 0.5 M acetic acid is added to the reaction tube and the mixture is added to a C18 Sep-Pak cartridge: The cartridge is washed with subsequent washes of 5 ml H2O and 5 ml 0.5M acetic acid and then eluted with 5×1 ml of 60% CH3CN/40% 0.5M acetic acid. The eluate is diluted with 3× volume of HPLC buffer A (0.1% TFA in H2O) and loaded onto a C18 column. The iodinated product is eluted over 20-25 min with a gradient of 25-100% CH3CN containing 0.1% TFA. The radioactive fractions (750 μl/fraction) are collected into clean polypropylene tubes containing 100 μl of 10% BSA. Fractions are assessed for biological activity by radioligand binding.
# Reactions are performed on ice for 2 hr and stopped by the addition of 2 ml of ice-cold PBS wash buffer (50 mM NaPO4, 0.9% NaCl, 2 mM MgCl2, and 0.02% NaN3, pH 7.4) and rapid filtration onto GF/C filters presoaked with 0.05% polyethylenimine utilizing a Brandel cell harvester. Filters are counted on a gamma counter. […]
Ki (rat GnRH receptor),Ki (human GnRH receptors),Ki (mouse GnRH receptors),Compound,ability to inhibit 125I-GnRH-A binding to GGH3 cells [6],other results
0.79 nM,1 nM,0.75 nM,"CNc1nc(OC)c(NC(=O)c2ccc(Cc3cc4c(cc3C)C(C)(C)CCC4(C)C)o2)c(OC)n1 [Example B1, 5-(3,5,5,8,8-Pentamethyl-5,6,7,8-tetrahydro-naphthalen-2-ylmethyl)-furan-2-carboxylic Acid (4,6-dimethoxy-2-methylamino-pyrimidin-5-yl)-amide]",,"solubility ([1]; pH 2, simulated gastric fluid, pH2, read-out: Solubility μg/ml pH2): 1.2 µg/mL; solubility ([1]; pH 6, aqueous buffer, pH6, read-out: Solubility μg/ml pH6): 0.4 µg/mL; Monkey % rem. [2]: 0%; Fem. Rat (FR) % rem. 30′ ([3]; female rat liver microsomes): 94%; Male Rat (MR) % rem. 30′ ([3]; male rat liver microsomes): 1%; Human % rem. 30′ [4]: 54%; Dog % rem. 30′ [5]: 2%; Rat plasma % remain (Rat plasma % remain): 100%"
0.92 nM,1.6 nM,1.7 nM,"COc1nc(NCCN2CCCC2)nc(OC)c1NC(=O)c1ccc(Cc2cc3c(cc2C)C(C)(C)OC3(C)C)o1 [Example D23, N-{4,6-Dimethoxy-2-[(2-pyrrolidin-1-ylethyl)amino]-pyrimidin-5-yl}-5-[(1,1,3,3,6-pentamethyl-1,3-dihydro-2-benzofuran-5-yl)methyl]-2-furamide Acetate]",,
,,,Ac-D-2-Nal-p-chloro-D-Phe-β-(3-pyridyl)-D-Ala-Ser-Lys(nicotinoyl)-D-Lys(nicotinoyl)-Leu-Lys(isopropyl)-Pro-D-Ala-NH2 [Antide],blocked,
,,,pGlu-His-Trp-Ser-Tyr-Gly-Leu-Arg-Pro-Gly-NH2 [GnRH],blocked,
14 nM,4.7 nM,5.3 nM,"COc1nc(N2CCOCC2)nc(OC)c1NC(=O)c1ccc(Cc2cc3c(cc2C)C(C)(C)CCC3(C)C)o1 [Example B3, 5-(3,5,5,8,8-Pentamethyl-5,6,7,8-tetrahydro-naphthalen-2-ylmethyl)-furan-2-carboxylic Acid (4,6-dimethoxy-2-morpholin-4-yl-pyrimidin-5-yl)-amide]",,
